Reference: patent US20210393585A1, “METHOD FOR PREVENTING AND/OR TREATING A STRESS-INDUCED DISEASE” (TZU CHI UNIVERSITY, priority 2020, published 2021)

Experiments:
Type in all cases: in vivo
B57BL/6J mice [1] = assay: Restraint stress-mediated immunosuppression in anti-platelet (CD41) Ig induced immune thrombocytopenia (ITP) model, platelet counts; conditions: for rescue of restraint stress-mediated immunosuppression (ITP model): restraint (psychological) stress, FIG. 7
Method: Experiment outlines (A). The effects of tanshinone IIA treatments on the restraint stress-mediated amelioration of immune thrombocytopenia (ITP) (B) were analyzed. The data are representative of three independent experiments with two mice per group (n=6). ** P<0.01 compared with the respective vehicle groups in the tanshinone IIA vs. vehicle treatments (B).
The effects of tanshinone I (A), crytotanshinone (B), tanshinone IIA sodium sulfate (C) treatments on the restraint stress-mediated amelioration of immune thrombocytopenia (ITP) were analyzed. The data are representative of three independent experiments with two mice per group (n=6). * P<0.05, ** P<0.01 compared with the respective vehicle without stress (0 h) groups, #P<0.05, ##P<0.01 compared with the respective tanshinone IIA, without stress groups in the ITP experiments.
(§1) Autoimmune thrombocytopenia (ITP) mouse model, through intravascular injections of anti-platelet (CD41) Ig following previously reported methods (Huang et al., Blood 2010; 116:5002-9), was employed to investigate the immunosuppressive property of cold exposure and restraint stress, and immune enhancing properties of tanshinone IIA and its derivatives. The B57BL/6J mice were intravenously injected with 0.1 mg/kg (body weight) of an antiplatelet monoclonal antibody (rat antimouse integrin αIIb/CD41 Ig, clone MWReg30, BD PharMingen) to induce ITP. Mice with or without injections of anti-CD41 Ig were subjected to cold exposure and restraint stress. To address the immune enhancing properties of tanshinone IIA, these mice were further treated with or without tanshinone I, tanshinone IIA, tanshinone IIA sodium sulfate, crytotanshinone (10-2 to 10 mg/kg) treatments. To determine the mouse platelet counts, whole blood samples (100-120 μL) of the mice were collected from the retro-orbital venous plexus and mixed with an anticoagulant, a citrate dextrose solution (38 mM citric acid, 75 mM sodium citrate, and 100 mM dextrose), in Eppendorf tubes. Subsequently, platelet counts were measured using a hematology analyzer (KX-21N, Sysmex) at various time intervals as previously described (Chan et al., Oncotarget 2018; 9:12781-95; Huang et al., Blood 2010; 116:5002-9).

B57BL/6J mice [2] = assay: Cold stress-mediated immunosuppression in anti-platelet (CD41) Ig induced immune thrombocytopenia (ITP) model, platelet counts; conditions: for rescue of cold stress-mediated immunosuppression (ITP model): FIG. 8
Method: (§2) Experiment outlines (A and C). The effects of tanshinone IIA treatments on the cold-mediated amelioration of immune thrombocytopenia (ITP) (B) and cold-suppressed bacterial clearance (D) were analyzed. The data are representative of three independent experiments with two mice per group (n=6). ** P<0.01 compared with the respective vehicle (25° C.) groups, ##P<0.01 compared with the respective tanshinone IIA 25° C. groups (B and D).
The effects of tanshinone I (A), crytotanshinone (B), tanshinone IIA sodium sulfate (C) treatments on the cold-mediated amelioration of immune thrombocytopenia (ITP) were analyzed. The data are representative of three independent experiments with two mice per group (n=6). ** P<0.01 compared with the respective vehicle (25° C.) groups, ##P<0.01 compared with the respective tanshinone IIA 25° C. groups.
as §1

E. coli, BL21 = assay: Cold-suppressed bacterial clearance (surviving bacteria in spleen); conditions: mice challenged i.v. with E. coli, compared to vehicle control (without immunosuppression) groups, FIG. 4D
Method: as §2
The bacterium E. coli was cultured using standard methods. To analyze the immunosuppressive effects of cold exposure and restraint stress on bacterial clearance, following our previously developed methods (Chan et al., Oncotarget 2018; 9:12781-95), the experimental mice were challenged by intravenously administering bacteria (E. coli, BL21, 6×10^9 CFU/kg; no mortality within 24 h at 4° C.); a 40-h circulating equilibrium at a 25° C. environment was required before cold exposure (control groups: 25° C. exposure) and restraint stress. One day after treatment with cold exposure or restraint stress, the spleens of the euthanized mice were collected and weighed. After homogenization (homogenizer, BioSpec Products, Racine, Wis., USA) in PBS, surviving bacteria (colony forming units [CFUs]) in the spleen tissues were quantified using the standard plating method. […]

cortisol = assay: Cold stress-induced plasma cortisol (ELISA); conditions: mice, FIG. 5
Method: The time course on the effects of tanshinone IIA treatments on the cold-mediated amelioration of immune thrombocytopenia (ITP) (A) and cold-induced elevation of cortisol (B) was analyzed. The data are representative of three independent experiments with two mice per group (n=6). ** P<0.01 compared with the respective vehicle (25° C.)/vehicle (0 h) groups.
Blood samples were collected from experimental mice under cold stress or restraint stress for 7 h. The plasma levels of cortisol were measured using an ELISA kit (Cayman Chemical, Ann Arbor, Mich., USA) as previously described (Chan et al., Oncotarget 2018; 9:12781-95).

B57BL/6J mice [3] = assay: Cold stress-induced gastrointestinal leakage (circulating Evans blue); conditions: stressed, 9 h groups with vs without TSNIIA, #P<0.05, FIG. 3
Method: (§3) Experiment outlines (A). The effects of tanshinone IIA treatments on the amelioration of cold exposure-induced gastrointestinal leakage (B) were analyzed. The data are representative of three independent experiments with two mice per group (n=6). ** P<0.01 compared with the respective 5 h, no stress groups, #P<0.05 compared with the respective stress groups of each time course (B). EB: Evans blue.
(§4) The results of the exemplary rescue of restraint stress-induced gastrointestinal leakage by tanshinone IIA (TSNIIA) treatments are shown in FIG. 1. Evans blue, a gastrointestinal non-absorbable dye, is able to bind circulating albumin to form dye-protein complexes, which cannot normally penetrate the endothelial cell layers of the vascular system, unless the tissue has been damaged (Yao et al., Contrast Media Mol Imaging 2018; 2018:7628037). Accordingly, circulating Evens blue levels are approximately and proportionally correlated to the levels of gastrointestinal injury.

B57BL/6J mice [4] = assay: Restraint stress-induced gastrointestinal leakage (circulating Evans blue); conditions: stressed, 9 h groups with vs without TSNIIA, #P<0.05, FIG. 1
Method: as §3, with “restraint stress induced” for “cold exposure-induced”, “* P<0.05” for “** P<0.01”
as §4

Compound | rescue of restraint stress-mediated immunosuppression (ITP model) (B57BL/6J mice [1]) | rescue of cold stress-mediated immunosuppression (ITP model) (B57BL/6J mice [2]) | bacterial clearance rate after cold stress (E. coli, BL21) | platelet counts after restraint stress in anti-platelet (CD41) Ig induced thrombocytopenia (B57BL/6J mice [1]; restraint stress, compared to vehicle control (without immunosuppression) groups, FIG. 2) | cold stress-induced levels of circulating cortisol (cortisol) | cold stress-induced gastrointestinal injury (circulating Evans blue levels) (B57BL/6J mice [3]) | restraint stress-induced gastrointestinal injury (circulating Evans blue levels) (B57BL/6J mice [4]) | platelet counts after cold stress in anti-platelet (CD41) Ig induced thrombocytopenia (B57BL/6J mice [2]; compared to vehicle control (without immunosuppression) groups, FIG. 4B)
tanshinone IIA sodium sulfate | exert similar immune enhancing properties under psychological stress | exert similar immune enhancing properties under cold stress | – | – | – | – | – | –
C[C@H]1COC2=C1C(=O)C(=O)c1c2ccc2c1CCCC2(C)C [crytotanshinone] | exert similar immune enhancing properties under psychological stress | exert similar immune enhancing properties under cold stress | – | – | – | – | – | –
Cc1coc2c1C(=O)C(=O)c1c-2ccc2c(C)cccc12 [tanshinone I] | exert similar immune enhancing properties under psychological stress | exert similar immune enhancing properties under cold stress | – | – | – | – | – | –
Cc1coc2c1C(=O)C(=O)c1c-2ccc2c1CCCC2(C)C [tanshinone IIA] | exert similar immune enhancing properties under psychological stress | exert similar immune enhancing properties under cold stress | the bacterial clearance rate is high | remain low and do not show statistical significance as compared to the vehicle control | counteract the cold stress-induced levels of circulating anti-inflammatory steroid hormone cortisol | able to ameliorate cold stress-induced gastrointestinal injury | able to ameliorate stress-induced gastrointestinal injury | remain low and do not show statistical significance as compared to the vehicle control
